Experiments:
[1] = system: cerebral cortical neural cells; test: MTT assay for cell viability after oxygen-glucose deprivation; format: cell-based, neonatal rat; settings: 2 mM NaP, positive control; 24 hours after injury; vs untreated oxygen-glucose deprivation group, p<0.05
Description: (§1) Culture of cerebral cortical neural cells: The brains of neonatal rats were dissected, the meninges removed, and the cerebral cortex isolated. The cortical tissues were digested with papain, single cells collected, and plated onto lysine-treated coverslips and cultured in Neurobasal™ serum-free medium. To mimic hypoxic-ischemic encephalopathy injury in vitro, the Neurobasal medium was replaced with DMEM medium at 7 days in vitro (DIV7), and cells were cultured under 21% O2/5% CO2 for 2.5 hours to serve as the control group, or Neurobasal medium replaced with glucose-free DMEM medium and cells cultured under 0% O2/5% CO2 for 2.5 hours to serve as the oxygen-glucose deprivation treatment group. After treatment, both groups were returned to Neurobasal medium and cultured normally under 21% O2/5% CO2 for 24 hours.
S1 Pretreatment: At the start of the oxygen-glucose deprivation treatment, cells were simultaneously treated with S1 (final concentrations of 0.01 μM, 0.1 μM, 1 μM, or 10 μM), or with the scrambled peptide Tat-NRRRNSKLQHKKY (SEQ ID NO: 10), or with NaP (Davunetide) as a control.
MTT assay for cell viability: After 24 hours of normal culture, MTT solution was added to each group and cultured for an additional 4 hours. […] Then, measure the absorbance at 490 nm and calculate the MTT formation level, which indicates cell viability. […]

[2] = system: cerebral cortical neural cells; test: Lactate dehydrogenase (LDH) cytotoxicity assay after oxygen-glucose deprivation; format: cell-based, neonatal rat; settings: 2 mM NaP, positive control; 24 hours after injury; vs untreated oxygen-glucose deprivation group, p<0.05
Description: as §1, with “hours. […]” for “hours.”
Lactate dehydrogenase (LDH) kit cytotoxicity assay: After 24 hours of normal culture, collect the cell culture supernatant from each group, add the LDH assay working solution, mix thoroughly, and incubate at room temperature in the dark for 30 minutes. Then, measure the absorbance at 490 nm and calculate the LDH release level, which indicates cytotoxicity. […]

CC[C@H](C)[C@H](NC(=O)[C@H](CO)NC(=O)[C@@H](NC(=O)[C@@H]1CCCN1C(=O)[C@H](C)NC(=O)[C@@H](N)CC(N)=O)C(C)C)C(=O)N1CCC[C@H]1C(=O)N[C@@H](CCC(N)=O)C(=O)O [NaP, Davunetide]
MTT formation levels [1]: significantly increased MTT formation levels
LDH release levels [2]: significantly reduced LDH release levels

From patent US20260337228A1, “COMPOSITION AND METHOD FOR TREATING NEONATAL HYPOXIC-ISCHEMIC ENCEPHALOPATHY” (SUZHOU GLENKOL PHARMA TECHNOLOGY CO., LTD., priority 2023, published 2026)
